The results in this text go back to patent publication US20030180260A1, “Immunotherapy or treating bacterial or viral infection at mucosal surfaces with probiotics, and compositions therefor” (priority 2000, published 2003).

The test system of one test is C albicans. The test can be described thus: Clearance of C. albicans in mice treated with NO synthase inhibitor. It counts as in vivo. The settings on record: ip daily for 3 days after infection; two mouse strains (H2d); FIG. 9. The method, then: To identify the immune parameters of protection, the levels of IFN-γ were determined at various times following infection with C. albicans. […] Since nitric oxide production is associated with host defence in parasitic infection, quantitation of NO was performed following infection in two mouse strains sharing the same H2d MHC haplotype. In this experiment mice were infected with C albicans and then followed by ip injection with an inhibitor of NO synthase, by injecting NG-monomethyl-L-arginine monoacetate (MNLA) daily for 3 days after which time the clearance rate of yeasts was determined.

The next test deals with Helicobacter pylori. The test can be described thus: Metronidazole therapy of H. pylori infection in mice pre-treated with probiotic. It counts as in vivo. The settings on record: for % eradication: compared with saline-treated control group. The method, then:
H. pylori infected mice (5 per group) were treated with Lactobacillus acidophilus (1×10^9 per animal) by oral feeding 3 times a week for 2 weeks prior to treatment with Metronidazole (0.08 mg/animal) for 1 week.

A further test deals with S typhimurium. Description: Translocation of S typhimurium to spleen in mice fed L fermentum and vaccinated with killed oral Salmonella vaccine. The class given is in vivo, BALB/c mice. The settings on record: for S typhimurium in spleen (±SEM): live oral challenge. The method, then:
BALB/c female mice (6-8 weeks old) were fed 10^8 L fermentum VRI012 (obtained from University of New South Wales, School of Microbiology and Immunology Culture Collection, Sydney, Australia) before or co-administered with 10^8 killed S typhimurium vaccine four times over a 2 week period. Two weeks after oral administration, the mice were challenged with live S typhimurium administered by the oral route. After sacrifice, the level of colonisation with S typhimurium in the spleen was determined.

The test system of test [1] is Non-typeable Haemophilus influenzae (NTHi). The test can be described thus: Clearance of NTHi from lungs of rats given a single intraduodenal dose of L. fermentum. The class given is in vivo, dark agouti (DA) rats. The method, then:
Groups of 6 male, specific pathogen free, dark agouti (DA) rats were given a single dose of PBS or live L. fermentum (2.5×10^10) directly into the duodenal lumen after exposure of the intestine by laparotomy. Twenty-one days later the rats were infected intratracheally with 5×10^8 live Non-typeable Haemophilus influenzae (NTHi). Four hours later the rats were killed by pentobarbitone overdose. The lungs were lavaged with 10 mL PBS to obtain broncho-alveolar lavage fluid (BAL). The lavaged lungs were then homogenised in 10 mL of PBS. Twenty microlitres of ten-fold serial dilutions of BAL and lung homogenate (LH) were plated on chocolate agar plates and incubated in a 10% CO2 incubator at 37° C. overnight. Colonies were counted and the number of live bacteria in the BAL and LH preparations determined. The recovery of live NTHi bacteria, presented as colony forming units (CFU), was as follows: […]

Marks after values point to notes of the source that are not given here.

On to `CC(=O)O.CNC(=N)NCCC[C@H](N)C(=O)O` [MNLA, NG-monomethyl-L-arginine monoacetate], for which, in the test on C albicans, the “clearance of yeasts compared with untreated mice” value is recorded as “delayed clearance of yeasts”.
Regarding `Cc1ncc([N+](=O)[O-])n1CCO` [Metronidazole, reference compound], the H. pylori colonisation in the test with Helicobacter pylori (L acidophilus 1×10^9 orally 3 times a week for 2 weeks, Metronidazole 0.08 mg/animal for 1 week) is on record as 11.4 ± 2.5 ×10^5 CFU/animal. The “% eradication” value with Helicobacter pylori is on record as 55^b %; with Helicobacter pylori (listed as metronidazole), 55%.
As for Lactobacillus fermentum [L. fermentum], the “S typhimurium in spleen (±SEM)” value is 4.5 ± 0.22 p < 0.05 vs Control Log CFU/g wet wt with S typhimurium (10^8 co-administered with 10^8 killed S typhimurium vaccine) and 3.8 ± 0.12 p < 0.05 vs Control Log CFU/g wet wt in the test with S typhimurium (10^8 fed before 10^8 killed S typhimurium vaccine). In the test on S typhimurium (fed prior to immunisation or co-administered with killed S typhimurium), the “level of translocation compared with mice fed PBS” value is recorded as “low levels of translocation”. Further, in test [1] (lung homogenate, CFU, single dose 2.5×10^10 into duodenal lumen, challenge day 21, 4 hours), the “LH, live NTHi recovered” value was determined as 0.82 ± 0.37 p = 0.017* 10^6. In addition, in test [1] (single dose 2.5×10^10 into duodenal lumen, challenge day 21, 4 hours), the “BAL CFU, live NTHi recovered” value is 0.49 ± 0.19 CFU (10^6). Besides, the “clearance of acute NTHi respiratory infection” value in test [1] (single dose delivered to the gut) is “enhanced clearance”.
